According to patent US12590131B2, “Antimicrobial peptides with alpha-core helices” (priority 2017, dated 2026):

System: panel of prototypic gram-positive (S. aureus), gram-negative (S. typhimurium, P. aeruginosa, A. baumannii) and fungal (C. albicans) pathogens
Assay: Radial diffusion assay for microbicidal activity, whole pathogen panel
Format: cell-based
Conditions: 10 μg peptide
Description: Select candidate microbicidal peptides were commercially synthesized by BioMatik (Biomatik USA, Wilmington, Delaware). Lyophilized peptides were reconstituted with ddIH20 and stored in aliquots at −20° C. LL-37 (Peptides International, Louisville, KY), a prototypic human AHAP, was used as a comparator in microbicidal assays.
Putative antimicrobial peptides were assayed for microbicidal activity using a well-established radial diffusion method modified to pH 5.5 or 7.5. A panel of microorganisms was tested: Gram-positive Staphylococcus aureus (ISP 479C, ISP 479R); Gram-negative Salmonella typhimurium (MS 5996s, MS 14028), Pseudomonas aeruginosa (PA01), Acinetobacter baumanni (19606) and the fungus Candida albicans (36082S, 36082R). Logarithmic phase organisms were inoculated (10^6 CFU/ml) into buffered agarose, and poured into plates. Peptides (10 μg) were introduced into wells in the seeded matrix, and incubated for 3 h at 37° C. Nutrient overlay medium was applied, and assays incubated at 37° C. or 30° C. for bacteria or fungi, respectively. After 24h, zones of inhibition were measured. Independent experiments were repeated a minimum of two times.

Substance | microbicidal activity (zones of inhibition) (pH 5.5) | microbicidal activity (zones of inhibition) (pH 7.5) | relative potency at pH 7.5 versus pH 5.5 | microbicidal activity (zones of inhibition) (pH 7.5 and pH 5.5, FIG. 9)
hIL-13 (EVAQFVKDLLLHLKKLFREGRFN) | retained significant activity | somewhat less potent |  | 
hIL7 (LCFLKRLLQEIKTCWNKILMGTKEH) | retained significant activity | somewhat less potent |  | 
hIFN-γ (AIHELIQVMAELSPAAKTGKRKRSQMLFRGRRASQ) |  |  | somewhat more potent at pH 7.5 than 5.5 | significant activity against most organisms
hIL-21 (KEFLERFKSLLQKMIHQHLSSRTHGSEDS) | retained significant activity | somewhat less potent |  | 
tIL-5 (KRFIEKLRTFLRKLSRGAK) |  |  |  | markedly potent against all organisms
bIFN-γ (KAISELYNVITELSKSNSKMRKRRQNLFRGWKASK) |  |  | somewhat more potent at pH 7.5 than 5.5 | significant activity against most organisms
